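Growth conditions: 96-well plates. Treatment: test compound, 48 hours, 5 concentrations. Analysis: linear interpolation between bracketing concentrations; unreached endpoints set to highest concentration. Abbreviation: GI50, concentration required for 50% inhibition of growth.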 Calls of active or inactive are those of the source. No stated cut-off is given here; in the data, active = GI50 up to about 1.1 µM and inactive = higher.
Assays:
Assay in all cases: growth of human tumour cells (NCI), 48 h
U-251 = test system: U-251
OVCAR-4 = test system: OVCAR-4
K562 = test system: K562
786-0 = test system: 786-0
OVCAR-8 = test system: OVCAR-8
SK-MEL-2 = test system: SK-MEL-2
A498 = test system: A498
OVCAR-3 = test system: OVCAR-3
SW-620 = test system: SW-620
COLO 205 = test system: COLO 205
SK-OV-3 = test system: SK-OV-3
DLD-1 = test system: DLD-1
A549 = test system: A549
SF-295 = test system: SF-295
UACC-257 = test system: UACC-257

Measured: GI50

O=C(/C=C1/NC(=O)CS1)Nc1ccccc1
inactive: U-251 > 100 µM | OVCAR-4 > 100 µM | K562 > 100 µM | 786-0 > 100 µM | OVCAR-8 > 100 µM | SK-MEL-2 89.5 µM | A498 > 100 µM | OVCAR-3 > 100 µM | SW-620 > 100 µM | COLO 205 > 100 µM | SK-OV-3 > 100 µM | DLD-1 > 100 µM | A549 > 100 µM | SF-295 > 100 µM

CC(=O)NC(ON1C(=O)COc2ccccc21)C(Cl)(Cl)Cl (stereo not given)
inactive: U-251 > 100 µM | OVCAR-4 > 100 µM | K562 > 100 µM | 786-0 > 100 µM | OVCAR-8 > 100 µM | SK-MEL-2 > 100 µM | OVCAR-3 > 100 µM | SW-620 > 100 µM | COLO 205 > 100 µM | UACC-257 > 100 µM | SK-OV-3 > 100 µM | DLD-1 > 100 µM | A549 > 100 µM | SF-295 > 100 µM

CCN(CC)c1ccc(/N=C2/C=CC(=C(C#N)C#N)c3ccccc32)c(C)c1
inactive: U-251 1.56 µM | OVCAR-4 1.88 µM | K562 1.56 µM | 786-0 2.22 µM | OVCAR-8 2.23 µM | SK-MEL-2 2.08 µM | OVCAR-3 1.86 µM | SW-620 1.58 µM | COLO 205 2.64 µM | UACC-257 2.16 µM | SK-OV-3 3.83 µM | DLD-1 2.44 µM | A549 2.18 µM | SF-295 2.28 µM

CSc1nc(-c2ccccc2)nc(N2CCOCC2)[s+]1
inactive: U-251 92.7 µM | OVCAR-4 > 100 µM | K562 37.6 µM | 786-0 > 100 µM | OVCAR-8 > 100 µM | SK-MEL-2 > 100 µM | A498 > 100 µM | OVCAR-3 > 100 µM | SW-620 > 100 µM | COLO 205 37 µM | SK-OV-3 > 100 µM | DLD-1 91.8 µM | A549 > 100 µM

CC1(C)OC(COCCOCCCCCO)C(COCCOCCCCCO)O1 (stereo not given)
inactive: U-251 > 100 µM | OVCAR-4 > 100 µM | K562 > 100 µM | 786-0 > 100 µM | OVCAR-8 > 100 µM | SK-MEL-2 > 100 µM | A498 > 100 µM | OVCAR-3 > 100 µM | SW-620 > 100 µM | COLO 205 > 100 µM | UACC-257 > 100 µM | SK-OV-3 > 100 µM | DLD-1 > 100 µM | A549 > 100 µM | SF-295 > 100 µM

Cc1ccccc1NC(=O)Cc1nc2ccccc2s1
inactive: U-251 11.8 µM | OVCAR-4 17.3 µM | K562 18.3 µM | 786-0 17.7 µM | OVCAR-8 17.7 µM | SK-MEL-2 16 µM | A498 19.2 µM | OVCAR-3 18 µM | SW-620 19.8 µM | COLO 205 30.7 µM | UACC-257 17.1 µM | SK-OV-3 24.4 µM | DLD-1 7.08 µM | A549 16.6 µM | SF-295 15.8 µM

CCOc1ccc(/N=C/c2cccc3cccnc23)cc1
inactive: U-251 > 100 µM | OVCAR-4 > 100 µM | K562 20 µM | 786-0 > 100 µM | OVCAR-8 > 100 µM | SK-MEL-2 > 100 µM | A498 > 100 µM | OVCAR-3 > 100 µM | SW-620 50.5 µM | COLO 205 > 100 µM | UACC-257 > 100 µM | SK-OV-3 > 100 µM | DLD-1 51.4 µM | A549 > 100 µM | SF-295 > 100 µM

Cc1cc2c(c(C(=O)O)c1C)-c1cccc(Cl)c1C2=O
inactive: U-251 > 100 µM | OVCAR-4 > 100 µM | K562 > 100 µM | 786-0 > 100 µM | OVCAR-8 > 100 µM | SK-MEL-2 > 100 µM | OVCAR-3 > 100 µM | SW-620 > 100 µM | COLO 205 > 100 µM | UACC-257 > 100 µM | SK-OV-3 > 100 µM | DLD-1 > 100 µM | A549 > 100 µM | SF-295 > 100 µM

COc1ccc2c(c1)[n+]([O-])c(-c1ccc(Br)cc1)c(N)[n+]2[O-]
inactive: U-251 37.4 µM | OVCAR-4 35.6 µM | K562 39.2 µM | 786-0 78 µM | OVCAR-8 37.2 µM | SK-MEL-2 32.4 µM | A498 > 100 µM | OVCAR-3 35.4 µM | SW-620 40.2 µM | COLO 205 18.9 µM | UACC-257 32.4 µM | SK-OV-3 92.7 µM | DLD-1 44.6 µM | A549 32.1 µM | SF-295 96.2 µM

COC(=O)/C(=N/NC(=O)C[N+](C)(C)C)C(C(=O)OC)C(=O)C(=O)Nc1ccc(F)cc1 (stereo not given)
inactive: U-251 > 100 µM | OVCAR-4 > 100 µM | K562 > 100 µM | 786-0 > 100 µM | SK-MEL-2 > 100 µM | A498 63.7 µM | OVCAR-3 > 100 µM | SW-620 > 100 µM | COLO 205 > 100 µM | UACC-257 > 100 µM | SK-OV-3 > 100 µM | DLD-1 > 100 µM | A549 > 100 µM | SF-295 > 100 µM

Cc1cc(Cl)ccc1NC(=O)CCCC(=O)C1CCC/C1=N\NC(=O)CC#N (stereo not given)
inactive: U-251 > 100 µM | OVCAR-4 > 100 µM | K562 > 100 µM | 786-0 > 100 µM | OVCAR-8 > 100 µM | SK-MEL-2 > 100 µM | A498 > 100 µM | OVCAR-3 > 100 µM | SW-620 > 100 µM | COLO 205 > 100 µM | UACC-257 > 100 µM | SK-OV-3 > 100 µM | DLD-1 > 100 µM | A549 > 100 µM | SF-295 > 100 µM

COC(=O)c1ccc(C(=O)OC)c2nc3cc(C)ccc3nc12
inactive: U-251 > 100 µM | OVCAR-4 > 100 µM | K562 > 100 µM | 786-0 > 100 µM | OVCAR-8 > 100 µM | SK-MEL-2 > 100 µM | A498 > 100 µM | OVCAR-3 > 100 µM | SW-620 > 100 µM | COLO 205 > 100 µM | UACC-257 > 100 µM | SK-OV-3 > 100 µM | DLD-1 > 100 µM | A549 > 100 µM | SF-295 > 100 µM

CCOC(=O)C(=O)Nc1c(C)cccc1C(C)C
inactive: U-251 > 100 µM | OVCAR-4 > 100 µM | K562 > 100 µM | 786-0 > 100 µM | OVCAR-8 > 100 µM | SK-MEL-2 > 100 µM | A498 > 100 µM | OVCAR-3 > 100 µM | SW-620 > 100 µM | COLO 205 > 100 µM | UACC-257 > 100 µM | SK-OV-3 > 100 µM | DLD-1 > 100 µM | A549 > 100 µM | SF-295 > 100 µM

CC1CC(c2ccccc2)=Nc2ccccc2S1(=O)=O (stereo not given)
inactive: U-251 18.1 µM | OVCAR-4 19 µM | K562 19.4 µM | 786-0 17.2 µM | OVCAR-8 21.1 µM | SK-MEL-2 14.8 µM | A498 14.8 µM | OVCAR-3 18.5 µM | SW-620 16.2 µM | COLO 205 20.4 µM | UACC-257 11.6 µM | SK-OV-3 19.7 µM | DLD-1 15.1 µM | A549 23.6 µM | SF-295 20.2 µM

Cc1ccc(S(=O)(=O)SCc2ccccc2)cc1
inactive: U-251 27 µM | OVCAR-4 15.5 µM | K562 4.57 µM | 786-0 17.3 µM | OVCAR-8 15.3 µM | SK-MEL-2 27 µM | A498 52.8 µM | OVCAR-3 20.8 µM | SW-620 4.31 µM | COLO 205 14.3 µM | UACC-257 31.9 µM | SK-OV-3 52.2 µM | DLD-1 5.31 µM | A549 35.8 µM | SF-295 30.3 µM

COC(=O)/C(=N\NC(N)=O)C(C(=O)C=C(C)C)C(=O)C(=O)Nc1ccc(Cl)c(Cl)c1 (stereo not given)
inactive: U-251 > 100 µM | OVCAR-4 > 100 µM | K562 > 100 µM | 786-0 > 100 µM | OVCAR-8 > 100 µM | SK-MEL-2 > 100 µM | A498 > 100 µM | OVCAR-3 > 100 µM | SW-620 > 100 µM | COLO 205 > 100 µM | UACC-257 > 100 µM | SK-OV-3 > 100 µM | DLD-1 > 100 µM | A549 > 100 µM | SF-295 > 100 µM

CCCCCC(=O)OCCOCCOCCOCCOCCOCc1ccccc1
inactive: U-251 > 100 µM | OVCAR-4 > 100 µM | 786-0 > 100 µM | OVCAR-8 > 100 µM | SK-MEL-2 > 100 µM | A498 > 100 µM | OVCAR-3 > 100 µM | SW-620 > 100 µM | COLO 205 > 100 µM | UACC-257 > 100 µM | DLD-1 > 100 µM | A549 > 100 µM | SF-295 > 100 µM

CC(C)N1C(C)[C@@H](c2ccccc2)O[P@]1(=O)CC1=CCCCC1 (stereo not given in full)
inactive: U-251 > 100 µM | K562 49.3 µM | 786-0 > 100 µM | OVCAR-8 > 100 µM | SK-MEL-2 > 100 µM | A498 > 100 µM | OVCAR-3 62.7 µM | SW-620 61.2 µM | COLO 205 98.4 µM | UACC-257 68.1 µM | SK-OV-3 > 100 µM | DLD-1 > 100 µM | A549 > 100 µM | SF-295 40.9 µM

c1ccc2c(c1)Sc1ccccc1N2C1CN2CCC1CC2 (stereo not given)
inactive: U-251 15.6 µM | OVCAR-4 17.7 µM | K562 13.7 µM | 786-0 13 µM | OVCAR-8 16.4 µM | SK-MEL-2 4.46 µM | A498 8.36 µM | OVCAR-3 15.8 µM | SW-620 16.4 µM | COLO 205 16.8 µM | UACC-257 15.5 µM | SK-OV-3 19.5 µM | DLD-1 15.8 µM | A549 16.7 µM | SF-295 15.3 µM
